{"source": "patent US20090163475A1", "about": "“CRYSTALLINE FORM OF BENZAZEPINIUM MALEATE DERIVATIVE” (priority 2005, published 2009)", "key": {"[1]": {"experiment": "solid-state stability with respect to hygroscopicity / humidity", "type": "physicochemical"}, "dopamine D2 receptor": {"biological_target": "dopamine D2 receptor (Homo sapiens, UniProt P14416)", "sequence (P14416 whole entry)": "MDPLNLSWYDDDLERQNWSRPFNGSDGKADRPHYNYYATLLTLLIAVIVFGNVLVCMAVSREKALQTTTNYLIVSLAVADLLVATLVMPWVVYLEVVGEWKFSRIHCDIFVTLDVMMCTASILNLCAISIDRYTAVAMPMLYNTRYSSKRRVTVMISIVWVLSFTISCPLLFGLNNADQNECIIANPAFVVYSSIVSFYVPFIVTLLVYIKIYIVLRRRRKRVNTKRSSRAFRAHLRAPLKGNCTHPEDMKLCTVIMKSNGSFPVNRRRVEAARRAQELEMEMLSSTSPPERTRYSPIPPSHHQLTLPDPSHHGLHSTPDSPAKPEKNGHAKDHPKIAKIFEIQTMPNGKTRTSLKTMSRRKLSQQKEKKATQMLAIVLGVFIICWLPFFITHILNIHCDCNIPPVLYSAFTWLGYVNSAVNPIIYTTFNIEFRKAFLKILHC", "experiment": "affinity for dopamine D2 receptors", "type": "binding"}, "dopamine D3 receptor": {"biological_target": "dopamine D3 receptor (Homo sapiens, UniProt P35462)", "sequence (P35462 whole entry, species assumed)": "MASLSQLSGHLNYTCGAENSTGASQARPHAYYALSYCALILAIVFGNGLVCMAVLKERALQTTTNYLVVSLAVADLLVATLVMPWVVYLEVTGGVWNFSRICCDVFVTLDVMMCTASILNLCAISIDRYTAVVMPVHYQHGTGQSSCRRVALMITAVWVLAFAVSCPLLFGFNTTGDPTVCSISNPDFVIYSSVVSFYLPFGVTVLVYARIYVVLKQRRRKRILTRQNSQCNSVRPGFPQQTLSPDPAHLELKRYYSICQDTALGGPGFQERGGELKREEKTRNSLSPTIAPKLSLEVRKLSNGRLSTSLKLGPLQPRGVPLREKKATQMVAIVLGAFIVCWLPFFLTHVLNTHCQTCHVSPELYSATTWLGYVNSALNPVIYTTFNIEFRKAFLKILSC", "experiment": "affinity for dopamine D3 receptors", "type": "binding"}, "serotonin 5-HT6 receptor": {"biological_target": "serotonin 5-HT6 receptor (Homo sapiens, UniProt P50406)", "sequence (P50406 whole entry)": "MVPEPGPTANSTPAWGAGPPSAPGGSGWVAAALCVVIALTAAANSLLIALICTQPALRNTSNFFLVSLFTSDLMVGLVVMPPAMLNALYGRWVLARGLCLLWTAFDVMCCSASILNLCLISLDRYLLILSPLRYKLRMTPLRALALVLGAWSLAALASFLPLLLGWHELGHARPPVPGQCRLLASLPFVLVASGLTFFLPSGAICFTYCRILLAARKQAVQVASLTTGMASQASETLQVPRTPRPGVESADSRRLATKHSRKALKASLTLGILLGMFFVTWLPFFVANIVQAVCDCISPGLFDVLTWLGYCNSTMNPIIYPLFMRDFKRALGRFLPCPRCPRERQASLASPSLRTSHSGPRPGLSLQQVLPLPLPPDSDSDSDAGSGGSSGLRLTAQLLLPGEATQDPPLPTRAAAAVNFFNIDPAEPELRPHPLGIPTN", "experiment": "antagonist affinity for serotonin 5-HT6 receptor", "type": "binding"}, "[2]": {"biological_target": "T1, serotonin 5-HT2C receptor (Homo sapiens, UniProt P28335)", "T1 sequence (P28335 33-458)": "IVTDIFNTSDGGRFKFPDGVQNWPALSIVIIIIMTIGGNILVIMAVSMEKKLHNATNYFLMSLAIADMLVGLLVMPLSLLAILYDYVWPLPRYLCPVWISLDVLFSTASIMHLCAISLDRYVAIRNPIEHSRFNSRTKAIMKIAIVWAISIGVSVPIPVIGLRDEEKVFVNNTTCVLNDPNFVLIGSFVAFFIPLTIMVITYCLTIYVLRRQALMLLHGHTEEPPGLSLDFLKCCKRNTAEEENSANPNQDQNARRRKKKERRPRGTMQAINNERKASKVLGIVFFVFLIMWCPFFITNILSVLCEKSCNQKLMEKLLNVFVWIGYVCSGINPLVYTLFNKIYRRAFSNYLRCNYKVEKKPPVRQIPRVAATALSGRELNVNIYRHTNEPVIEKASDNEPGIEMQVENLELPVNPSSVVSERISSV", "experiment": "antagonist affinity for serotonin 5-HT2C receptor", "type": "binding"}}}
{"compound": "COc1cc2c(cc1S(=O)(=O)c1ccc(OCc3ccc(Cl)cc3)cc1)CCN(C)CC2.O=C(O)/C=C\\C(=O)O", "note": "[Form 2 maleate anhydrate, 7-[4-(4-Chlorobenzyloxy)benzenesulfonyl]-8-methoxy-3-methyl-2,3,4,5-tetrahydro-1H-3-benzazepinium Maleate]", "values": [{"measurement": "stability with respect to hygroscopicity and loss of water", "setting": "[1]", "result": "particular stability"}, {"measurement": "changes when exposed to very high humidity", "setting": "[1]; very high humidity", "result": "reversible changes"}]}
{"compound": "COc1cc2c(cc1S(=O)(=O)c1ccc(OCc3ccc(Cl)cc3)cc1)CCN(C)CC2.O=C(O)/C=C\\C(=O)O", "note": "[Form 2 salt, 7-[4-(4-Chlorobenzyloxy)benzenesulfonyl]-8-methoxy-3-methyl-2,3,4,5-tetrahydro-1H-3-benzazepinium maleate]", "values": [{"measurement": "affinity for dopamine D2 receptor", "setting": "dopamine D2 receptor", "result": "exhibit affinity"}, {"measurement": "affinity for dopamine D3 receptor", "setting": "dopamine D3 receptor", "result": "exhibit affinity"}, {"measurement": "affinity for dopamine D3 relative to D2 receptors", "setting": "dopamine D3 receptor; D3 versus D2", "result": "greater affinity for dopamine D3 than for D2 receptors"}, {"measurement": "antagonist affinity for serotonin 5-HT6 receptor", "setting": "serotonin 5-HT6 receptor", "result": "antagonist affinity"}, {"measurement": "antagonist affinity for serotonin 5-HT2C receptor", "setting": "[2]", "result": "antagonist affinity"}]}
